In patent US6358885B1, “Substituted phenylheterocyclic herbicides” (Mississippi State University, priority 1992, dated 2002):

Legend:
broadleaf signalgrass = experiment: Test G preemergence/postemergence greenhouse plant response rating 0 to 100; format: in vivo, Brachiaria plantaginea; conditions: 0 to 100 scale
Text: Seeds, rhizomes, or plant parts of alfalfa (Medicago ativa), annual bluegrass (Poa annua), bermudagrass (Cynodon dactylon), broadleaf signalgrass (Brachiaria plantaginea), common purslane (Portulaca oleracea), common ragweed (Ambrosia elatior), […] (Paspalum dilatatum), goosegrass (Eleusine indica), guineagrass (Panicum maximum), […] exaltata), johnsongrass (Sorghum halepense), large crabgrass (Digitaria sanguinalis), peanut (Arachis hypoagaea), pitted morningglory (Ipomoea lacunosa), purple nutsedge (Cyperus rotundus), sandbur (Cenchrus echinatus), smooth crabgrass (Digitaria ischaemum) and yellow nutsedge (Cyperus esculentus) were planted into greenhouse pots containing greenhouse planting medium. Each pot contained only one plant species. The test compound was dissolved in a non-phytotoxic solvent and applied preemergence and/or postemergence to the plants. Preemergence applications were made within one day of planting the seeds or plant parts. Postemergence applications were applied when the plants were in the two to four leaf stage (three to twenty cm). Test chemicals were dissolved in a non-phytotoxic solvent and applied preemergence and postemergence to the plants. Untreated control plants and treated plants were placed in the greenhouse and visually evaluated for injury at 13 to 21 days after herbicide application. […] A dash (-) response indicates no test result.

giant foxtail = experiment: Test B preemergence/postemergence greenhouse plant response rating 0 to 10; format: in vivo, Setaria faberii; conditions: 0 to 10 scale
How it was run: (§1)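 Planted seeds are treated preemergence with compound dissolved in a non-phytotoxic solvent, while postemergence applications go onto plants of two to eighteen cm. Plants stay in the greenhouse twelve to sixteen days and are then rated visually relative to controls.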

velvetleaf = experiment: as above; format: in vivo, Abutilon theophrasti; conditions: 0 to 10 scale
How it was run: as §1

cheatgrass = experiment: as above; format: in vivo, Bromus secalinus; conditions: for Plant response rating, Cheatgrass: 0 to 10 scale
How it was run: as §1

crabgrass = experiment: as above; format: in vivo, Digitaria spp.; conditions: for Plant response rating, Crabgrass: 0 to 10 scale
How it was run: as §1

rape = experiment: as above; format: in vivo, Brassica napus; conditions: 0 to 10 scale
How it was run: as §1

barnyardgrass = experiment: as above; format: in vivo, Echinochloa crus-galli; conditions: for Plant response rating, Barnyardgrass: 0 to 10 scale
How it was run: as §1

chickweed = experiment: as above; format: in vivo, Stellaria media; conditions: for Plant response rating, Chickweed: 0 to 10 scale
How it was run: as §1

corn = experiment: as above; format: in vivo, Zea mays; conditions: for Plant response rating, Corn: 0 to 10 scale
How it was run: as §1

morningglory = experiment: as above; format: in vivo, Ipomoea hederacea; conditions: 0 to 10 scale
How it was run: as §1

SMILES | Plant response rating, Brdlf Sgnlgrass (broadleaf signalgrass; POSTEMERGENCE, Rate 125 g/ha) | Plant response rating, Brdlf Sgnlgrass (broadleaf signalgrass; POSTEMERGENCE, Rate 250 g/ha) | Plant response rating, Brdlf Sgnlgrass (broadleaf signalgrass; PREEMERGENCE, Rate 125 g/ha) | Plant response rating, Brdlf Sgnlgrass (broadleaf signalgrass; PREEMERGENCE, Rate 250 g/ha) | Plant response rating, Giant foxtail (giant foxtail; POSTEMERGENCE, Rate 50 g/ha) | Plant response rating, Giant foxtail (giant foxtail; POSTEMERGENCE, Rate 200 g/ha) | Plant response rating, Giant foxtail (giant foxtail; PREEMERGENCE, Rate 50 g/ha) | Plant response rating, Giant foxtail (giant foxtail; Rate 200 g/ha, PREEMERGENCE) | Plant response rating, Velvetleaf (velvetleaf; POSTEMERGENCE, Rate 50 g/ha) | Plant response rating, Velvetleaf (velvetleaf; POSTEMERGENCE, Rate 200 g/ha) | Plant response rating, Velvetleaf (velvetleaf; PREEMERGENCE, Rate 50 g/ha) | Plant response rating, Velvetleaf (velvetleaf; Rate 200 g/ha, PREEMERGENCE) | Plant response rating (0 to 10 scale), Cheatgrass (cheatgrass; POSTEMERGENCE, Rate 50 g/ha) | Plant response rating, Cheatgrass (cheatgrass; POSTEMERGENCE, Rate 200 g/ha) | Plant response rating, Cheatgrass (cheatgrass; PREEMERGENCE, Rate 50 g/ha) | Plant response rating, Cheatgrass (cheatgrass; Rate 200 g/ha, PREEMERGENCE) | Plant response rating (0 to 10 scale), Crabgrass (crabgrass; POSTEMERGENCE, Rate 50 g/ha) | Plant response rating, Crabgrass (crabgrass; POSTEMERGENCE, Rate 200 g/ha) | Plant response rating, Crabgrass (crabgrass; PREEMERGENCE, Rate 50 g/ha) | Plant response rating, Crabgrass (crabgrass; Rate 200 g/ha, PREEMERGENCE) | also measured
CC(C)Oc1cc(-c2nn3c(c2Cl)CCCC3)c(F)cc1Cl [Compound 21] | 0 | 0 | 0 | 0 | 4 | 7 | 5 | 9 | 10 | 9 | 1 | 10 | 5 | 8 | 4 | 6 | 2 | 6 | 2 | 8 | Plant response rating, Rape (rape; POSTEMERGENCE, Rate 50 g/ha): 6; Plant response rating, Rape (rape; POSTEMERGENCE, Rate 200 g/ha): 10; Plant response rating, Rape (rape; PREEMERGENCE, Rate 50 g/ha): 3; Plant response rating, Rape (rape; Rate 200 g/ha, PREEMERGENCE): 8; Plant response rating (0 to 10 scale), Barnyardgrass (barnyardgrass; POSTEMERGENCE, Rate 50 g/ha): 6; Plant response rating, Barnyardgrass (barnyardgrass; POSTEMERGENCE, Rate 200 g/ha): 9; Plant response rating, Barnyardgrass (barnyardgrass; PREEMERGENCE, Rate 50 g/ha): 2; Plant response rating, Barnyardgrass (barnyardgrass; Rate 200 g/ha, PREEMERGENCE): 7; Plant response rating (0 to 10 scale), Chickweed (chickweed; POSTEMERGENCE, Rate 50 g/ha): 8; Plant response rating, Chickweed (chickweed; POSTEMERGENCE, Rate 200 g/ha): 7; Plant response rating, Chickweed (chickweed; PREEMERGENCE, Rate 50 g/ha): 2; Plant response rating, Chickweed (chickweed; Rate 200 g/ha, PREEMERGENCE): 7; Plant response rating (0 to 10 scale), Corn (corn; POSTEMERGENCE, Rate 50 g/ha): 5; Plant response rating, Corn (corn; POSTEMERGENCE, Rate 200 g/ha): 6; Plant response rating, Corn (corn; PREEMERGENCE, Rate 50 g/ha): 0; Plant response rating, Corn (corn; Rate 200 g/ha, PREEMERGENCE): 1; Plant response rating, Morningglory (morningglory; POSTEMERGENCE, Rate 50 g/ha): 10; Plant response rating, Morningglory (morningglory; POSTEMERGENCE, Rate 200 g/ha): 9; Plant response rating, Morningglory (morningglory; PREEMERGENCE, Rate 50 g/ha): 2; Plant response rating, Morningglory (morningglory; Rate 200 g/ha, PREEMERGENCE): 2
Fc1cc(Cl)c(OCc2ccccc2)cc1-c1nn2c(c1Cl)CCCC2 [Compound 22] | 0 | 0 | 0 | 0 | 3 | 4 | 3 | 9 | 6 | 9 | 4 | 5 | 3 | 4 | 0 | 3 | 3 | 2 | 2 | 4 | Plant response rating, Rape (rape; POSTEMERGENCE, Rate 50 g/ha): 4; Plant response rating, Rape (rape; POSTEMERGENCE, Rate 200 g/ha): 7; Plant response rating, Rape (rape; PREEMERGENCE, Rate 50 g/ha): 0; Plant response rating, Rape (rape; Rate 200 g/ha, PREEMERGENCE): 1; Plant response rating (0 to 10 scale), Barnyardgrass (barnyardgrass; POSTEMERGENCE, Rate 50 g/ha): 3; Plant response rating, Barnyardgrass (barnyardgrass; POSTEMERGENCE, Rate 200 g/ha): 5; Plant response rating, Barnyardgrass (barnyardgrass; PREEMERGENCE, Rate 50 g/ha): 2; Plant response rating, Barnyardgrass (barnyardgrass; Rate 200 g/ha, PREEMERGENCE): 5; Plant response rating, Chickweed (chickweed; POSTEMERGENCE, Rate 200 g/ha): 7; Plant response rating, Chickweed (chickweed; PREEMERGENCE, Rate 50 g/ha): 0; Plant response rating, Chickweed (chickweed; Rate 200 g/ha, PREEMERGENCE): 2; Plant response rating (0 to 10 scale), Corn (corn; POSTEMERGENCE, Rate 50 g/ha): 3; Plant response rating, Corn (corn; POSTEMERGENCE, Rate 200 g/ha): 4; Plant response rating, Corn (corn; PREEMERGENCE, Rate 50 g/ha): 2; Plant response rating, Corn (corn; Rate 200 g/ha, PREEMERGENCE): 4; Plant response rating, Morningglory (morningglory; POSTEMERGENCE, Rate 50 g/ha): 5; Plant response rating, Morningglory (morningglory; POSTEMERGENCE, Rate 200 g/ha): 9; Plant response rating, Morningglory (morningglory; PREEMERGENCE, Rate 50 g/ha): 2; Plant response rating, Morningglory (morningglory; Rate 200 g/ha, PREEMERGENCE): 2
CCCOc1cc(-c2nn3c(c2Cl)CCCC3)c(F)cc1Cl [Compound 23] | 0 | 0 | 0 | 0 | 5 | 7 | 6 | 9 | 9 | 10 | 1 | 10 | 6 | 8 | 4 | 6 | 2 | 6 | 2 | 9 | Plant response rating, Rape (rape; POSTEMERGENCE, Rate 50 g/ha): 6; Plant response rating, Rape (rape; POSTEMERGENCE, Rate 200 g/ha): 10; Plant response rating, Rape (rape; PREEMERGENCE, Rate 50 g/ha): 3; Plant response rating, Rape (rape; Rate 200 g/ha, PREEMERGENCE): 6; Plant response rating (0 to 10 scale), Barnyardgrass (barnyardgrass; POSTEMERGENCE, Rate 50 g/ha): 7; Plant response rating, Barnyardgrass (barnyardgrass; POSTEMERGENCE, Rate 200 g/ha): 9; Plant response rating, Barnyardgrass (barnyardgrass; PREEMERGENCE, Rate 50 g/ha): 4; Plant response rating, Barnyardgrass (barnyardgrass; Rate 200 g/ha, PREEMERGENCE): 6; Plant response rating, Chickweed (chickweed; POSTEMERGENCE, Rate 200 g/ha): 9; Plant response rating, Chickweed (chickweed; PREEMERGENCE, Rate 50 g/ha): 0; Plant response rating, Chickweed (chickweed; Rate 200 g/ha, PREEMERGENCE): 6; Plant response rating (0 to 10 scale), Corn (corn; POSTEMERGENCE, Rate 50 g/ha): 4; Plant response rating, Corn (corn; POSTEMERGENCE, Rate 200 g/ha): 6; Plant response rating, Corn (corn; PREEMERGENCE, Rate 50 g/ha): 0; Plant response rating, Corn (corn; Rate 200 g/ha, PREEMERGENCE): 6; Plant response rating, Morningglory (morningglory; POSTEMERGENCE, Rate 50 g/ha): 8; Plant response rating, Morningglory (morningglory; POSTEMERGENCE, Rate 200 g/ha): 10; Plant response rating, Morningglory (morningglory; PREEMERGENCE, Rate 50 g/ha): 3; Plant response rating, Morningglory (morningglory; Rate 200 g/ha, PREEMERGENCE): 8
